In ChEMBL document CHEMBL1250451, “Mechanistic insights into a Ca2+-dependent family of alpha-mannosidases in a human gut symbiont” (Nat Chem Biol, 2010):
Activity calls are given as the source filed them. No cut-off for these calls is given here.

Legend:
Format in all cases: protein assay
[1] = biological target: T1, Alpha-1,2-mannosidase, putative (BT_4073) (Bacteroides thetaiotaomicron) (UniProt Q8A0E8); assay: Activity of Bacteroides thetaiotaomicron GH92 alpha-mannosidase GH92 alpha-mannosidase 4073 assessed as mannose release at 1 mM after 16 hrs by HPLC relative to untreated control after 16 hrs by HPLC
T1 sequence (whole entry): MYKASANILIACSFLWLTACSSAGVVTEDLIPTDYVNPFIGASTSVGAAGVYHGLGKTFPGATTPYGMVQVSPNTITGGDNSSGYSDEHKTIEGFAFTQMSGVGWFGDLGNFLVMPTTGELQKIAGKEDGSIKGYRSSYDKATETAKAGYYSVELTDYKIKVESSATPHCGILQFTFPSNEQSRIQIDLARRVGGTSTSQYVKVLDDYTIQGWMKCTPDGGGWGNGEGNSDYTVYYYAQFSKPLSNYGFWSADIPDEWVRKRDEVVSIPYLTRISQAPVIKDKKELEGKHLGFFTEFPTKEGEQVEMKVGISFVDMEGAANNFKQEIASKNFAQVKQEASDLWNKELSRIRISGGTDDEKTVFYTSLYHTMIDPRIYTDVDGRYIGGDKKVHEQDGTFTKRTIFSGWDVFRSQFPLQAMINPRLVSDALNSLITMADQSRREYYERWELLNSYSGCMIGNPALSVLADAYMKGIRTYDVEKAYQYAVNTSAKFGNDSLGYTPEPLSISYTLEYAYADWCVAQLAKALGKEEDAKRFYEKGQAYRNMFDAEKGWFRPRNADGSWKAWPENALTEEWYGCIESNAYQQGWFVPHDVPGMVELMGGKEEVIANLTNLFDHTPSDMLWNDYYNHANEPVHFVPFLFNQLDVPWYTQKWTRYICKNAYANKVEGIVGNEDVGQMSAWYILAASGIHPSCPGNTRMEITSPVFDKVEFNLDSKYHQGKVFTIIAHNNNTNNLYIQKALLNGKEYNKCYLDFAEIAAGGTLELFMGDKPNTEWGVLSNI

[2] = biological target: T2, Alpha-1,2-mannosidase (BT_3991) (Bacteroides thetaiotaomicron) (UniProt Q8A0N0); assay: Activity of Bacteroides thetaiotaomicron GH92 alpha-mannosidase GH92 alpha-mannosidase 3991 assessed as mannose release at 1 mM after 16 hrs by HPLC relative to untreated control after 16 hrs by HPLC
T2 sequence (whole entry): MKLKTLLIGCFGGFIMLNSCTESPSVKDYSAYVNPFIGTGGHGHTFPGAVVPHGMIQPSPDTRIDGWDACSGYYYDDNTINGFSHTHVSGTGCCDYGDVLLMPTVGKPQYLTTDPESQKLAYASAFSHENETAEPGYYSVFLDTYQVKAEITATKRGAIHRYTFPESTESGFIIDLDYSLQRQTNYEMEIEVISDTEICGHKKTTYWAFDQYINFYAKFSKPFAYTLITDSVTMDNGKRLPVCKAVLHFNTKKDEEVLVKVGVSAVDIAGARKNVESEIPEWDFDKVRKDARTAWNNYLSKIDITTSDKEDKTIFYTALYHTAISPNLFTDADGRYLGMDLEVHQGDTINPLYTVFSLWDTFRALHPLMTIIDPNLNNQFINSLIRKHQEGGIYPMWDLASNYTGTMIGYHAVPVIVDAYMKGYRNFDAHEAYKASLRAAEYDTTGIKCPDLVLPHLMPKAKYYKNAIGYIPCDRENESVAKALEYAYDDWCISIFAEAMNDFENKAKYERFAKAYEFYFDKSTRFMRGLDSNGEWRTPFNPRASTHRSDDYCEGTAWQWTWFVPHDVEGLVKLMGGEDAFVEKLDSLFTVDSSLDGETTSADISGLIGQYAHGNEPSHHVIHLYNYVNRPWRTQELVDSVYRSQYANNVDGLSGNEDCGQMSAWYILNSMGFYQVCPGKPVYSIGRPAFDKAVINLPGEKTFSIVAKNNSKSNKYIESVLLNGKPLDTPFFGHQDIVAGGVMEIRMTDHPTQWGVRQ

[3] = biological target: T3, Alpha-1,2-mannosidase (BT_3530) (Bacteroides thetaiotaomicron) (UniProt Q8A1X8); assay: Activity of Bacteroides thetaiotaomicron GH92 alpha-mannosidase GH92 alpha-mannosidase 3530 assessed as mannose release at 1 mM after 16 hrs by HPLC relative to untreated control after 16 hrs by HPLC
T3 sequence (whole entry): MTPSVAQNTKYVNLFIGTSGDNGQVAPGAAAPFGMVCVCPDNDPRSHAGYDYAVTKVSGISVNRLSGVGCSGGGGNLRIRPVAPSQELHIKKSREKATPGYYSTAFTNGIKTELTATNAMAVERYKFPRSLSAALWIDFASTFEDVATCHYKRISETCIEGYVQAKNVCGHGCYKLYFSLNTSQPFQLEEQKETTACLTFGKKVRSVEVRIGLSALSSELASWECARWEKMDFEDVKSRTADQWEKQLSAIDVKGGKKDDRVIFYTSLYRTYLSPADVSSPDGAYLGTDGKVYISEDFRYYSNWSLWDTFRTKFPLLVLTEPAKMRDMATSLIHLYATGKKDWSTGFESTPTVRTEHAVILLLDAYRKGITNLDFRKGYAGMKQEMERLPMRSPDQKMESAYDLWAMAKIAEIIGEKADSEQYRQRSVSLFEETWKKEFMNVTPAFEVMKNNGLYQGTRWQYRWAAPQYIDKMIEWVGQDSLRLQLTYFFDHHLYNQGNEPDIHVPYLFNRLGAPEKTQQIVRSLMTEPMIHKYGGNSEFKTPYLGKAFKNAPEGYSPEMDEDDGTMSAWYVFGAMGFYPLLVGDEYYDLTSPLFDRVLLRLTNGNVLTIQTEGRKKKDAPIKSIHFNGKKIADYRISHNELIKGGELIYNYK

Row | Activity [1] | Activity [2] | Activity [3] | SMILES
1 | inactive | 0.8% | inactive | OC[C@H]1O[C@H](O[C@H]2[C@@H](O)[C@H](O)[C@@H](CO)O[C@@H]2O)[C@@H](O)[C@@H](O)[C@@H]1O
2 | inactive | – | 58% | OC[C@H]1O[C@H](O[C@@H]2[C@H](O)[C@@H](O)O[C@H](CO)[C@H]2O)[C@@H](O)[C@@H](O)[C@@H]1O
3 | 100% | inactive | 100% | OC[C@H]1O[C@H](O[C@H]2[C@H](O)[C@H](O)[C@@H](O)O[C@@H]2CO)[C@@H](O)[C@@H](O)[C@@H]1O
4 | inactive | 1.51% | inactive | OC[C@H]1O[C@H](OC[C@H]2O[C@H](O)[C@@H](O)[C@@H](O)[C@@H]2O)[C@@H](O)[C@@H](O)[C@@H]1O
